Measurements from the CheMixHub ionic liquid set.

Assay: xn = mol fraction of the nth substance listed

[Cl][Al]([Cl])[Cl] + CCCC[n+]1ccn(C)c1.[Cl-]
Details | electrical conductivity [S/m] | viscosity [mPa·s]
270.1 K, 101.3 kPa, x2 = 0.5263 | 0.158 | –
270.1 K, 101.3 kPa, x2 = 0.5556 | 0.0827 | –
275.6 K, 101.3 kPa, x2 = 0.3333 | 0.36 | –
275.6 K, 101.3 kPa, x2 = 0.3636 | 0.38 | –
275.6 K, 101.3 kPa, x2 = 0.4 | 0.412 | –
275.6 K, 101.3 kPa, x2 = 0.4348 | 0.408 | –
276.1 K, 101.3 kPa, x2 = 0.4762 | 0.415 | –
276.1 K, 101.3 kPa, x2 = 0.5 | 0.423 | –
276.1 K, 101.3 kPa, x2 = 0.5556 | 0.135 | –
281.1 K, 101.3 kPa, x2 = 0.5263 | 0.328 | –
281.1 K, 101.3 kPa, x2 = 0.5556 | 0.189 | –
284.65 K, 101.3 kPa, x2 = 0.3333 | 0.578 | –
284.65 K, 101.3 kPa, x2 = 0.3636 | 0.588 | –
284.65 K, 101.3 kPa, x2 = 0.4 | 0.582 | –
284.65 K, 101.3 kPa, x2 = 0.4348 | 0.599 | –
284.65 K, 101.3 kPa, x2 = 0.4762 | 0.608 | –
284.65 K, 101.3 kPa, x2 = 0.5 | 0.616 | –
293.65 K, 101.3 kPa, x2 = 0.3333 | 0.774 | –
293.65 K, 101.3 kPa, x2 = 0.3636 | 0.803 | –
295.65 K, 101.3 kPa, x2 = 0.4 | 0.855 | –
295.65 K, 101.3 kPa, x2 = 0.4348 | 0.911 | –
295.65 K, 101.3 kPa, x2 = 0.4762 | 0.883 | –
295.65 K, 101.3 kPa, x2 = 0.5 | 0.916 | –
296.65 K, 101.3 kPa, x2 = 0.5263 | 0.639 | –
296.65 K, 101.3 kPa, x2 = 0.5556 | 0.417 | –
298.15 K, 101 kPa, x1 = 0.545 | 0.98 | 28.92
303.15 K, 101 kPa, x1 = 0.5238 | – | 26.36
303.15 K, 101 kPa, x1 = 0.5653 | – | 22.62
303.15 K, 101 kPa, x1 = 0.6429 | – | 17.68
303.15 K, 101 kPa, x1 = 0.643 | 1.06 | 17.7
303.15 K, 101 kPa, x1 = 0.667 | 1.05 | –
303.15 K, 101.3 kPa, x2 = 0.3333 | 1.02 | –
304.15 K, 101.3 kPa, x2 = 0.3333 | 1.05 | –
304.65 K, 101.3 kPa, x2 = 0.5263 | 0.868 | –
304.65 K, 101.3 kPa, x2 = 0.5556 | 0.586 | –
305.15 K, 101.3 kPa, x2 = 0.3333 | 1.07 | –
305.15 K, 101.3 kPa, x2 = 0.4 | 1.14 | –
305.15 K, 101.3 kPa, x2 = 0.5 | 1.25 | –
306.15 K, 101.3 kPa, x2 = 0.3636 | 1.16 | –
306.15 K, 101.3 kPa, x2 = 0.4348 | 1.22 | –
308.15 K, 101 kPa, x1 = 0.615 | 1.23 | 16.72
315.15 K, 101.3 kPa, x2 = 0.4762 | 1.57 | –
315.15 K, 101.3 kPa, x2 = 0.5263 | 1.2 | –
315.15 K, 101.3 kPa, x2 = 0.5556 | 0.851 | –
316.15 K, 101.3 kPa, x2 = 0.3333 | 1.41 | –
316.15 K, 101.3 kPa, x2 = 0.4 | 1.5 | –
316.15 K, 101.3 kPa, x2 = 0.5 | 1.68 | –
318.15 K, 101 kPa, x1 = 0.667 | 1.5 | 11.35
318.15 K, 101.3 kPa, x2 = 0.3636 | 1.54 | –
318.15 K, 101.3 kPa, x2 = 0.4348 | 1.69 | –
322.15 K, 101.3 kPa, x2 = 0.3333 | 1.62 | –
323.15 K, 101 kPa, x1 = 0.5 | – | 16.06
323.15 K, 101 kPa, x1 = 0.6296 | – | 11.12
324.15 K, 101.3 kPa, x2 = 0.5 | 1.98 | –
324.15 K, 101.3 kPa, x2 = 0.5263 | 1.5 | –
324.15 K, 101.3 kPa, x2 = 0.5556 | 1.09 | –
325.15 K, 101.3 kPa, x2 = 0.4 | 1.87 | –
326.15 K, 101.3 kPa, x2 = 0.3636 | 1.82 | –
326.15 K, 101.3 kPa, x2 = 0.4348 | 1.95 | –
328.15 K, 101 kPa, x1 = 0.643 | 1.88 | 9.76
331.15 K, 101.3 kPa, x2 = 0.4762 | 2.25 | –
332.15 K, 101.3 kPa, x2 = 0.3333 | 2 | –
333.15 K, 101 kPa, x1 = 0.5238 | – | 12.28
333.15 K, 101 kPa, x1 = 0.6001 | – | 9.9
333.15 K, 101 kPa, x1 = 0.615 | 2.16 | 9.5
333.15 K, 101 kPa, x1 = 0.6296 | – | 9.15
333.15 K, 101.3 kPa, x2 = 0.4 | 2.21 | –
333.15 K, 101.3 kPa, x2 = 0.5 | 2.43 | –
334.15 K, 101.3 kPa, x2 = 0.3636 | 2.15 | –
334.15 K, 101.3 kPa, x2 = 0.4348 | 2.33 | –
334.15 K, 101.3 kPa, x2 = 0.5263 | 1.94 | –
334.15 K, 101.3 kPa, x2 = 0.5556 | 1.42 | –
340.15 K, 101.3 kPa, x2 = 0.3333 | 2.29 | –
340.15 K, 101.3 kPa, x2 = 0.4762 | 2.65 | –
342.15 K, 101.3 kPa, x2 = 0.3636 | 2.45 | –
342.65 K, 101.3 kPa, x2 = 0.4348 | 2.72 | –
343.15 K, 101 kPa, x1 = 0.5834 | – | 8.63
343.15 K, 101.3 kPa, x2 = 0.4 | 2.62 | –
343.65 K, 101.3 kPa, x2 = 0.5 | 2.92 | –
344.15 K, 101.3 kPa, x2 = 0.5263 | 2.39 | –
345.15 K, 101.3 kPa, x2 = 0.5556 | 1.81 | –
347.15 K, 101.3 kPa, x2 = 0.3333 | 2.58 | –
347.15 K, 101.3 kPa, x2 = 0.4762 | 3.04 | –
350.15 K, 101.3 kPa, x2 = 0.3636 | 2.86 | –
351.15 K, 101.3 kPa, x2 = 0.4348 | 3.15 | –
351.65 K, 101.3 kPa, x2 = 0.4 | 3.02 | –
351.65 K, 101.3 kPa, x2 = 0.5 | 3.33 | –
352.15 K, 101.3 kPa, x2 = 0.5263 | 2.81 | –
352.15 K, 101.3 kPa, x2 = 0.5556 | 2.12 | –
358.15 K, 101.3 kPa, x2 = 0.3333 | 3 | –
358.15 K, 101.3 kPa, x2 = 0.4762 | 3.59 | –
360.15 K, 101.3 kPa, x2 = 0.3636 | 3.29 | –
360.15 K, 101.3 kPa, x2 = 0.4348 | 3.59 | –
361.15 K, 101.3 kPa, x2 = 0.4 | 3.46 | –
361.15 K, 101.3 kPa, x2 = 0.5 | 3.86 | –
361.65 K, 101.3 kPa, x2 = 0.5263 | 3.32 | –
361.65 K, 101.3 kPa, x2 = 0.5556 | 2.56 | –
367.15 K, 101.3 kPa, x2 = 0.3333 | 3.41 | –
367.15 K, 101.3 kPa, x2 = 0.4762 | 4.14 | –
370.15 K, 101.3 kPa, x2 = 0.3636 | 3.7 | –
370.15 K, 101.3 kPa, x2 = 0.4348 | 4.08 | –
370.15 K, 101.3 kPa, x2 = 0.5263 | 3.76 | –
370.15 K, 101.3 kPa, x2 = 0.5556 | 2.97 | –
371.15 K, 101.3 kPa, x2 = 0.4 | 3.96 | –
371.15 K, 101.3 kPa, x2 = 0.5 | 4.49 | –
379.15 K, 101.3 kPa, x2 = 0.3333 | 4.07 | –
379.15 K, 101.3 kPa, x2 = 0.4762 | 4.87 | –

Details | electrical conductivity [S/m]
306.15 K, 101 kPa, frequency 1 MHz, x2 = 0.625 | 0.227

CC(C)O + CCCC[n+]1ccn(C)c1.F[B-](F)(F)F
101 kPa, x2 = 0
Details | viscosity [mPa·s]
293.15 K | 2.42
298.15 K | 2.08
303.15 K | 1.8
308.15 K | 1.56
313.15 K | 1.36
318.15 K | 1.19
323.15 K | 1.05

CCCC[n+]1ccn(C)c1.[Cl-] + CO
101 kPa, frequency 0 MHz
Details | electrical conductivity [S/m]
293.15 K, x1 = 0.007978 | 0.93
303.15 K, x1 = 0.00449 | 0.66
313.15 K, x1 = 0.002223 | 0.42
313.15 K, x1 = 0.00354 | 0.6
323.15 K, x1 = 0.00449 | 0.83

101 kPa
Details | electrical conductivity [S/m] | viscosity [mPa·s]
293.15 K, x2 = 0.5001 | – | 65
293.15 K, x2 = 0.5458 | – | 40.4
298.15 K, x2 = 0.7015 | 2.19 | 7.5
303.15 K, x2 = 0.5594 | – | 27.1
303.15 K, x2 = 0.7001 | – | 6.8
308.15 K, x2 = 0.8999 | – | 1.19
308.15 K, x2 = 0.95 | – | 0.79

CCCC[n+]1ccn(C)c1.COP(=O)([O-])OC + CCC(=O)O.CCC(=O)[O-].CC[NH+](CC)CCO
101 kPa, x2 = 0
Details | viscosity [mPa·s]
283.15 K | 2142
328.15 K | 100.9
343.15 K | 52.35
373.15 K | 19.25
